From patent publication US8410161B2, “Thioxanthone ring system derivatives” (National Defense Medical Center, priority 2010, dated 2013)

Assays:
[1] = tested on: SNB-75; assay: NCI in vitro DTP human cell line screen, SNB-75; format: cell-based; conditions: CNS Cancer, 1.00E−5 Molar
Protocol: (§1) Then, a cell toxicity assay of the cancer lines made by National Cancer Institute will be discussed as follows. The cell toxicity assay is performed by choosing ten compounds (existing certification numbers) from the 59 compounds disclosed in the present invention first.

[2] = tested on: K562; assay: NCI in vitro DTP human cell line screen, K562; format: cell-based; conditions: Leukemia, 1.00E−5 Molar
Protocol: as §1

[3] = tested on: HCT-15; assay: NCI in vitro DTP human cell line screen, HCT-15; format: cell-based; conditions: Colon Cancer, 1.00E−5 Molar
Protocol: as §1

[4] = tested on: COLO 205; assay: NCI in vitro DTP human cell line screen, COLO 205; format: cell-based; conditions: Colon Cancer, 1.00E−5 Molar
Protocol: as §1

[5] = tested on: 60 cancer lines; assay: NCI cell toxicity assay of 60 cancer lines, whole panel summary; format: cell-based, human; conditions: mean over all cell lines; 1.00E−5 Molar
Protocol: as §1

[6] = tested on: NCI-H460; assay: NCI in vitro DTP human cell line screen, NCI-H460; format: cell-based; conditions: Non-Small Cell Lung Cancer, 1.00E−5 Molar
Protocol: as §1

[7] = tested on: U251; assay: NCI in vitro DTP human cell line screen, U251; format: cell-based; conditions: CNS Cancer, 1.00E−5 Molar
Protocol: as §1

[8] = tested on: BT-549; assay: NCI in vitro DTP human cell line screen, BT-549; format: cell-based; conditions: Breast Cancer, 1.00E−5 Molar
Protocol: as §1

[9] = tested on: HOP-62; assay: NCI in vitro DTP human cell line screen, HOP-62; format: cell-based; conditions: Non-Small Cell Lung Cancer, 1.00E−5 Molar
Protocol: as §1

[10] = tested on: CCRF-CEM; assay: NCI in vitro DTP human cell line screen, CCRF-CEM; format: cell-based; conditions: Leukemia, 1.00E−5 Molar
Protocol: as §1

[11] = tested on: M14; assay: NCI in vitro DTP human cell line screen, M14; format: cell-based; conditions: Melanoma, 1.00E−5 Molar
Protocol: as §1

[12] = tested on: CAKI-1; assay: NCI in vitro DTP human cell line screen, CAKI-1; format: cell-based; conditions: Renal Cancer, 1.00E−5 Molar
Protocol: as §1

[13] = tested on: SNB-19; assay: NCI in vitro DTP human cell line screen, SNB-19; format: cell-based; conditions: CNS Cancer, 1.00E−5 Molar
Protocol: as §1

[14] = tested on: SN12C; assay: NCI in vitro DTP human cell line screen, SN12C; format: cell-based; conditions: Renal Cancer, 1.00E−5 Molar
Protocol: as §1

[15] = tested on: HL-60(TB); assay: NCI in vitro DTP human cell line screen, HL-60(TB); format: cell-based; conditions: Leukemia, 1.00E−5 Molar
Protocol: as §1

[16] = tested on: NCI-H226; assay: NCI in vitro DTP human cell line screen, NCI-H226; format: cell-based; conditions: Non-Small Cell Lung Cancer, 1.00E−5 Molar
Protocol: as §1

[17] = tested on: SK-MEL-2; assay: NCI in vitro DTP human cell line screen, SK-MEL-2; format: cell-based; conditions: Melanoma, 1.00E−5 Molar
Protocol: as §1

[18] = tested on: UACC-62; assay: NCI in vitro DTP human cell line screen, UACC-62; format: cell-based; conditions: Melanoma, 1.00E−5 Molar
Protocol: as §1

[19] = tested on: SK-MEL-5; assay: NCI in vitro DTP human cell line screen, SK-MEL-5; format: cell-based; conditions: Melanoma, 1.00E−5 Molar
Protocol: as §1

[20] = tested on: SF-268; assay: NCI in vitro DTP human cell line screen, SF-268; format: cell-based; conditions: CNS Cancer, 1.00E−5 Molar
Protocol: as §1

[21] = tested on: OVCAR-3; assay: NCI in vitro DTP human cell line screen, OVCAR-3; format: cell-based; conditions: Ovarian Cancer, 1.00E−5 Molar
Protocol: as §1

[22] = tested on: OVCAR-5; assay: NCI in vitro DTP human cell line screen, OVCAR-5; format: cell-based; conditions: Ovarian Cancer, 1.00E−5 Molar
Protocol: as §1

[23] = tested on: EKVX; assay: NCI in vitro DTP human cell line screen, EKVX; format: cell-based; conditions: Non-Small Cell Lung Cancer, 1.00E−5 Molar
Protocol: as §1

[24] = tested on: NCI/ADR-RES; assay: NCI in vitro DTP human cell line screen, NCI/ADR-RES; format: cell-based; conditions: Ovarian Cancer, 1.00E−5 Molar
Protocol: as §1

[25] = tested on: KM12; assay: NCI in vitro DTP human cell line screen, KM12; format: cell-based; conditions: Colon Cancer, 1.00E−5 Molar
Protocol: as §1

[26] = tested on: PC-3; assay: NCI in vitro DTP human cell line screen, PC-3; format: cell-based; conditions: Prostate Cancer, 1.00E−5 Molar
Protocol: as §1

[27] = tested on: OVCAR-4; assay: NCI in vitro DTP human cell line screen, OVCAR-4; format: cell-based; conditions: Ovarian Cancer, 1.00E−5 Molar
Protocol: as §1

[28] = tested on: NCI-H522; assay: NCI in vitro DTP human cell line screen, NCI-H522; format: cell-based; conditions: Non-Small Cell Lung Cancer, 1.00E−5 Molar
Protocol: as §1

[29] = tested on: SW-620; assay: NCI in vitro DTP human cell line screen, SW-620; format: cell-based; conditions: Colon Cancer, 1.00E−5 Molar
Protocol: as §1

[30] = tested on: MDA-MB-231/ATCC; assay: NCI in vitro DTP human cell line screen, MDA-MB-231/ATCC; format: cell-based; conditions: Breast Cancer, 1.00E−5 Molar
Protocol: as §1

[31] = tested on: NCI-H322M; assay: NCI in vitro DTP human cell line screen, NCI-H322M; format: cell-based; conditions: Non-Small Cell Lung Cancer, 1.00E−5 Molar
Protocol: as §1

[32] = tested on: MDA-MB-435; assay: NCI in vitro DTP human cell line screen, MDA-MB-435; format: cell-based; conditions: Melanoma, 1.00E−5 Molar
Protocol: as §1

[33] = tested on: 786-0; assay: NCI in vitro DTP human cell line screen, 786-0; format: cell-based; conditions: Renal Cancer, 1.00E−5 Molar
Protocol: as §1

[34] = tested on: SF-295; assay: NCI in vitro DTP human cell line screen, SF-295; format: cell-based; conditions: CNS Cancer, 1.00E−5 Molar
Protocol: as §1

[35] = tested on: SK-OV-3; assay: NCI in vitro DTP human cell line screen, SK-OV-3; format: cell-based; conditions: Ovarian Cancer, 1.00E−5 Molar
Protocol: as §1

[36] = tested on: RPMI-8226; assay: NCI in vitro DTP human cell line screen, RPMI-8226; format: cell-based; conditions: Leukemia, 1.00E−5 Molar
Protocol: as §1

[37] = tested on: NCI-H23; assay: NCI in vitro DTP human cell line screen, NCI-H23; format: cell-based; conditions: Non-Small Cell Lung Cancer, 1.00E−5 Molar
Protocol: as §1

[38] = tested on: UACC-257; assay: NCI in vitro DTP human cell line screen, UACC-257; format: cell-based; conditions: Melanoma, 1.00E−5 Molar
Protocol: as §1

[39] = tested on: MCF7; assay: NCI in vitro DTP human cell line screen, MCF7; format: cell-based; conditions: Breast Cancer, 1.00E−5 Molar
Protocol: as §1

[40] = tested on: LOX IMVI; assay: NCI in vitro DTP human cell line screen, LOX IMVI; format: cell-based; conditions: Melanoma, 1.00E−5 Molar
Protocol: as §1

[41] = tested on: MALME-3M; assay: NCI in vitro DTP human cell line screen, MALME-3M; format: cell-based; conditions: Melanoma, 1.00E−5 Molar
Protocol: as §1

[42] = tested on: SK-MEL-28; assay: NCI in vitro DTP human cell line screen, SK-MEL-28; format: cell-based; conditions: Melanoma, 1.00E−5 Molar
Protocol: as §1

[43] = tested on: UO-31; assay: NCI in vitro DTP human cell line screen, UO-31; format: cell-based; conditions: Renal Cancer, 1.00E−5 Molar
Protocol: as §1

[44] = tested on: HT29; assay: NCI in vitro DTP human cell line screen, HT29; format: cell-based; conditions: Colon Cancer, 1.00E−5 Molar
Protocol: as §1

[45] = tested on: HS 578-T; assay: NCI in vitro DTP human cell line screen, HS 578-T; format: cell-based; conditions: Breast Cancer, 1.00E−5 Molar
Protocol: as §1

[46] = MTT assay, HEL299 fibroblast; format: cell-based; conditions: human
Excerpt: Please refer to FIG. 4C, various cell viabilities of the HEL299 cell lines can be obtained through the MTT assay while the compounds No. 1˜30 are used to treat HEL299 cell lines, wherein HEL299 cell lines are fibroblast.

[47] = tested on: ACHN; assay: NCI in vitro DTP human cell line screen, ACHN; format: cell-based; conditions: Renal Cancer, 1.00E−5 Molar
Protocol: as §1

[48] = tested on: RXF 393; assay: NCI in vitro DTP human cell line screen, RXF 393; format: cell-based; conditions: Renal Cancer, 1.00E−5 Molar
Protocol: as §1

O=c1c2ccccc2sc2c(Cl)c(SCc3ccc(Cl)cc3)ccc12 [No. 26, 4-Chloro-3-(4-chlorobenzylthio)-9H-thioxanthen-9-one]
Growth Percent [1]: 96.90% | Growth Percent [2]: 113.64% | Growth Percent [3]: 104.80% | Growth Percent [4]: 108.87% | Growth Percent, Mean [5]: 99.47% | Growth Percent [6]: 106.85% | Growth Percent [7]: 86.21% | Growth Percent [8]: 94.67% | Growth Percent [9]: 89.02% | Growth Percent [10]: 92.28% | Growth Percent [11]: 101.01% | Growth Percent [12]: 98.76% | Growth Percent [13]: 96.85% | Growth Percent [14]: 94.51% | Growth Percent [15]: 105.29% | Growth Percent [16]: 94.77% | Growth Percent [17]: 90.37% | Growth Percent [18]: 92.54% | Growth Percent [19]: 101.76% | Growth Percent [20]: 101.57% | Growth Percent [21]: 130.11% | Growth Percent [22]: 102.23% | Growth Percent [23]: 110.82% | Growth Percent [24]: 100.89% | Growth Percent [25]: 107.42% | Growth Percent [26]: 93.28% | Growth Percent [27]: 107.67% | Growth Percent [28]: 81.19% | Growth Percent [29]: 105.00% | Growth Percent [30]: 95.00% | Growth Percent [31]: 101.60% | Growth Percent [32]: 108.59% | Growth Percent [33]: 106.48% | Growth Percent [34]: 112.42% | Growth Percent [35]: 97.10% | Growth Percent [36]: 91.09% | Growth Percent [37]: 96.57% | Growth Percent [38]: 92.94% | Growth Percent [39]: 94.48% | Growth Percent [40]: 97.16% | Growth Percent [41]: 105.22% | Growth Percent [42]: 114.10% | Growth Percent [43]: 89.66% | Growth Percent [44]: 103.09% | Growth Percent [45]: 108.61% | viability [46]: 58.7 ± 5.55% | Growth Percent [47]: 91.82% | Growth Percent [48]: 109.38%
